Where two headings read alike, the source gives them in different places. Starred links: 1 amine or outer side, 2 acyl side, 3 side chain; linkers in the order of their positions; H or OH if unused. Positions of bridges follow the written chain, without caps; N, C: chain ends. Non-standard residues stand in square brackets, D forms with d. Chains are numbered I, II in the order given. X1 = O=C(CCOCCOCCOCCN(CCOCCOCCOCCn1cc(CCC(=O)[*:2])nn1)CCOCCOCCOCCn1cc(CCC(=O)[*:3])nn1)[*:1]; TATA = O=C(CC[*:1])N1CN(C(=O)CC[*:2])CN(C(=O)CC[*:3])C1; d1Nal = N[C@H](Cc1cccc2ccccc12)C(=O)O; Hyp = O=C(O)[C@@H]1C[C@@H](O)CN1; hArg = N=C(N)NCCCC[C@H](N)C(=O)O; tBuAla = CC(C)(C)C[C@H](N)C(=O)O; Nle = CCCC[C@H](N)C(=O)O
Assays:
[1] = Pharmacokinetic profiles in plasma and tumor tissue of CT26 #7 tumor bearing animals; type: in vivo, BALB/c mice; settings: female, BALB/c, mouse, single iv 5 mg/kg
Description: 6-8 weeks old BALB/c female mice were inoculated in the flank with 3×10^5 syngeneic Nectin-4 overexpressing CT26 cells (CT26 #7). When tumors reached around 400 mm^3 size on average, mice were randomized to receive a single intravenous dose of vehicle or 5 mg/kg BCY11863. A cohort of mice (n=3/timepoint) were sacrificed at 0.25, 0.5, 1, 2, 4, 8 and 24 h timepoints and harvested plasma and tumor tissue were analyzed for BCY11863. For tumor BCY11863 content analysis, tumor homogenate was prepared by homogenizing tumor tissue with 10 volumes (w:v) of homogenizing solution (MeOH/15 mM PBS (1:2, v:v)). 40 μL of sample was quenched with 200 μL IS1 and the mixture was mixed by vortexing for 10 min at 800 rpm and centrifuged for 15 min at 3220 g at 4° C. The supernatant was transfer to another clean 96-well plate and centrifuged for 5 min at 3220 g at 4° C., and 10.0 μL of supernatant was then injected for LC-MS/MS analysis using an Orbitrap Q Exactive in positive ion mode to determine the concentrations of analyte. For plasma BCY11863 content analysis, blood samples were collected in K2-EDTA tubes and immediately processed to plasma by centrifugation at approximately 4° C., 3000 g. 40 μL of plasma sample was quenched with 200 μL IS1 and the mixture was mixed by vortexing for 10 min at 800 rpm and centrifuged for 15 min at 3220 g at 4° C. […]

human PBMCs [2] = assay: Human PBMC-tumor cell co-culture (cytokine stimulation) assay with Nectin-4-expressing tumor cells; type: cell-based
Description: Tumor cell lines were cultured according to suppliers recommended protocol. Frozen PBMCs from healthy human donors were thawed and washed one time in room temperature PBS, and then resuspended in R10 medium. 100 μl of PBMCs (1,000,000 PBMCs/ml) and 100 μl of tumor cells (100,000 tumor cells/ml) (Effector:Target cell ratio (E:T) 10:1) were plated in each well of a 96 well flat bottom plate for the co-culture assay. 100 ng/ml of soluble anti-CD3 mAb (clone OKT3) was added to the culture on day 0 to stimulate human PBMCs. Test, control compounds, or vehicle controls were diluted in R10 media and 50 μL was added to respective wells to bring the final volume per well to 250 μL. Plates were covered with a breathable film and incubated in a humidified chamber at 37° C. with 5% CO2 for […]. Supernatants were collected 48 hours after stimulation, and human IL-2 and IFN-γ were detected by Luminex. Briefly, the standards and samples were added to black 96 well plate. Microparticle cocktail (provided in Luminex kit, R&D Systems) was added and shaken for 2 hours at room temperature. The plate was washed 3 times using magnetic holder. Biotin cocktail was then added to the plate and shaken for 1 hour at RT. The plate was washed 3 times using magnetic holder. Streptavidin cocktail was added to the plate and shaken for 30 minutes at RT. The plates were washed 3 times using magnetic holder, resuspended in 100 μL of wash buffer, shaken for 2 minutes at RT, and read using the Luminex 2000. Raw data were analyzed using built-in Luminex software to generate standard curves and interpolate protein concentrations, all other data analyses and graphing were performed using Excel and Prism software. […]

cyno Nectin-4 = assay: SPR direct binding to biotinylated Nectin-4 extracellular domain, cyno
Source text: The binding of BCY11863 to its primary target Nectin-4 and CD137 was characterized using surface plasmon resonance (SPR).

human PBMCs [3] = assay: Human PBMC co-culture cytokine secretion assay with EphA2-expressing tumor cells (MC38, HT-1080, HT29); type: cell-based; settings: anti-CD3, 48 h, read-out: EC50 of IL-2 cytokine secretion
Description: […] MC38 were cultured in Dulbecco's Modified Eagle Medium supplemented with 10% heat inactivated Fetal Bovine Serum (FBS), 1× Penicillin/Streptomycin, 10 mM HEPES, and 2 mM L-Glutamine (referred to as R10 medium). Frozen PBMCs from healthy human donors were thawed and washed once in room temperature PBS with benzonase, and then resuspended in RPMI supplemented with 10% heat inactivated Fetal Bovine Serum (FBS), 1× Penicillin/Streptomycin, 10 mM HEPES, and 2 mM L-Glutamine (herein referred to as R10 medium). 100 μl of PBMCs (1,000,000 PBMCs/ml) and 100 μl of tumor cells (100,000 tumor cells/ml) (Effector:Target cell ratio (E:T) 10:1) were plated in each well of a 96 well flat bottom plate for the co-culture assay. 100 ng/ml of soluble anti-CD3 mAb (clone OKT3) was added to the culture on day 0 to stimulate human PBMCs. Test, control compounds, or vehicle controls were diluted in R10 media and 50 μL was added to respective wells to bring the final volume per well to 250 μL. Plates were covered with a breathable film and incubated in a humidified chamber at 37° C. with 5% CO2 for two days. […] Briefly, the standards and samples were added to a black 96 well plate. Microparticle cocktail (provided in Luminex kit, R&D Systems) was added and shaken for 2 hours at room temperature. The plate was washed 3 times using a magnetic holder. Biotin cocktail was then added to the plate and shaken for 1 hour at RT. The plate was washed 3 times using a magnetic holder. Streptavidin cocktail was added to the plate and shaken for 30 minutes at RT. The plates were washed 3 times using a magnetic holder, resuspended in 100 μL of wash buffer, shaken for 2 minutes at RT, and read using the Luminex 2000. Raw data were analyzed using built-in Luminex software to generate standard curves and interpolate protein concentrations, all other data analyses and graphing were performed using Excel and Prism software. Data represents one study with three independent donor PBMCs tested in experimental duplicates.
Similarly, PBMCs from healthy donors were co-cultured with EphA2 expressing cancer cells (MC38 and HT-1080) at a ratio of 5:1 in presence of anti-CD3 and BCY13272. […]

Compound	half-life ([1]; plasma, read-out: plasma T1/2 (converted)) [h]	half-life ([1]; tumor tissue, read-out: tumor T1/2 (converted)) [h]	EC50 (human PBMCs [2]; 4T1-D02 (mouse), 4 donors, read-out: IFNy (nM), EC50 of cytokine secretion) [nM]	EC50 (human PBMCs [2]; 4T1-D02 (mouse), 4 donors, read-out: IL-2 (nM), EC50 of cytokine secretion) [nM]	EC50 (human PBMCs [2]; 4T1-Parental (Nectin4-), read-out: IFNy (nM), EC50 of cytokine secretion) [nM]	EC50 (human PBMCs [2]; 4T1-Parental (Nectin4-), read-out: IL-2 (nM), EC50 of cytokine secretion) [nM]	EC50 (human PBMCs [2]; H322 (human), 3 donors, read-out: IFNy (nM), EC50 of cytokine secretion) [nM]	EC50 (human PBMCs [2]; H322 (human), 3 donors, read-out: IL-2 (nM), EC50 of cytokine secretion) [nM]	EC50 (human PBMCs [2]; HT1376 (human), 5 donors, read-out: IFNy (nM), EC50 of cytokine secretion) [nM]	EC50 (human PBMCs [2]; HT1376 (human), 5 donors, read-out: IL-2 (nM), EC50 of cytokine secretion) [nM]	EC50 (human PBMCs [2]; MC38 #13 (mouse), 4 donors, read-out: IFNy (nM), EC50 of cytokine secretion) [nM]	EC50 (human PBMCs [2]; MC38 #13 (mouse), 4 donors, read-out: IL-2 (nM), EC50 of cytokine secretion) [nM]	IL-2 and IFN-γ cytokine secretion (human PBMCs [2]; PBMC-4T1 (Nectin-4 engineered) co-culture, FIGS. 2A, 2B)	EC50 (human PBMCs [2]; T-47D (human), 3 donors, read-out: IFNy (nM), EC50 of cytokine secretion) [nM]	EC50 (human PBMCs [2]; T-47D (human), 3 donors, read-out: IL-2 (nM), EC50 of cytokine secretion) [nM]	Kd (cyno Nectin-4; Direct Binding, biotinylated Nectin-4 extracellular domain, 25° C., read-out: SPR KD NHP (25° C.)) [nM]	Kd (cyno Nectin-4; biotinylated ECD captured on streptavidin chip, read-out: KD) [nM]	EC50 (human PBMCs [3]; human PBMC-HT-1080 co-culture) [nM]	EC50 (human PBMCs [3]; human PBMC-MC38 co-culture) [nM]
CCCC[C@@H]1NC(=O)[C@H](Cc2ccc(O)cc2)NC(=O)[C@@H]2CCCN2C(=O)[C@H](CC(=O)O)NC(=O)[C@H](C)NC(=O)[C@H](Cc2ccccc2)NC(=O)[C@@H]2CSCCC(=O)N3CN(CN(C3)C(=O)CCSC[C@@H](C(=O)N[C@@H](C)C(N)=O)NC1=O)C(=O)CCSC[C@H](NC(C)=O)C(=O)N[C@@H](CC(C)(C)C)C(=O)N1CCC[C@H]1C(=O)N[C@@H](CCC(=O)O)C(=O)N[C@H](CCCCNC(=O)CCc1cn(CCOCCOCCOCCN(CCOCCOCCOCCC(=O)N[C@H]3CSCCC(=O)N4CN5CN(C4)C(=O)CCSC[C@H](NC(=O)[C@@H](CC(=O)O)NC(=O)[C@H](Cc4cccc6ccccc46)NC(=O)[C@@H]4CCCN4C3=O)C(=O)N[C@@H](CCSC)C(=O)N[C@@H](CCCCNC(=N)N)C(=O)N[C@@H](CC(=O)O)C(=O)N[C@@H](Cc3c[nH]c4ccccc34)C(=O)N[C@@H](CO)C(=O)N[C@@H]([C@@H](C)O)C(=O)N3CCC[C@H]3C(=O)N3C[C@H](O)C[C@H]3C(=O)N[C@@H](Cc3c[nH]c4ccccc34)C(=O)N[C@H](C(N)=O)CSCCC5=O)CCOCCOCCOCCn3cc(CCC(=O)NCCCC[C@H]4NC(=O)[C@H](CCC(=O)O)NC(=O)[C@@H]5CCCN5C(=O)[C@H](CC(C)(C)C)NC(=O)[C@@H](NC(C)=O)CSCCC(=O)N5CN6CN(C5)C(=O)CCSC[C@H](NC(=O)[C@H](Cc5ccc(O)cc5)NC(=O)[C@@H]5CCCN5C4=O)C(=O)N[C@@H](Cc4ccccc4)C(=O)N[C@@H](C)C(=O)N[C@@H](CC(=O)O)C(=O)N4CCC[C@H]4C(=O)N[C@@H](Cc4ccc(O)cc4)C(=O)N[C@@H](CCCC)C(=O)N[C@H](C(=O)N[C@@H](C)C(N)=O)CSCCC6=O)nn3)nn1)C(=O)N1CCC[C@H]1C(=O)N[C@@H](Cc1ccc(O)cc1)C(=O)N2 [BCY11863]	1.65	13.4	0.04 ± 0.04	0.16 ± 0.22	> 100	> 100	0.85 ± 0.66	0.84 ± 0.15	0.23 ± 0.15	0.39 ± 0.29	0.17 ± 0.11	0.25 ± 0.08	induces robust IL-2 and IFN-γ cytokine secretion	0.08 ± 0.06	0.2 ± 0.07	27 ± 15	5 to 27		
I: A[hArg]DC[Hyp]LVNPLCLEP[d1Nal]WTC-NH2 / II: Ac-C[tBuAla]PE[dK]PYCFADPY[Nle]CA-NH2 / III: Ac-C[tBuAla]PE[dK]PYCFADPY[Nle]CA-NH2 (linker I:4-I:11-I:18, II:1-II:8-II:15, III:1-III:8-III:15 via TATA; linker I:N-II:5-III:5 via X1) [BCY13272]																		0.55 ± 0.47	0.79 ± 0.24

— patent US20230129258A1, “HETEROTANDEM BICYCLIC PEPTIDE COMPLEXES” (BicycleTx Limited, priority 2019, published 2023)
